# Marks after values point to notes of the source that are not given here.
# Assays:
# [1] = Effect of pH on production of CS2 from thiocarbonates in citrate-phosphate buffers (gas chromatography of air); type: physicochemical
# Method: Pure carbon disulfide was also injected, for comparison. A syringe was used to periodically sample air in the bottle, and the air was analyzed by gas chromotography.
# [2] = system: Fusarium oxysporum; test: Fungicidal test, radial growth of mycelia from treated agar blocks; type: cell-based; conditions: listed as CaCS₄ (2.8%CS₂)
# Method: (§1) Thiocarbonate solutions were used in a test of their fungicidal properties. Cultures of four plant pathogenic fungi were grown upon potato dextrose agar at room temperature, in diffuse natural lighting. After one week, square blocks having 2 millimeter sides were cut from the edges of actively drawings mycelia spots on the agar.
# (§2) The blocks were immersed in sterile deionized water, as a control, or in dilutions of thiocarbonate solutions using the sterile water, in a closed container. Subsequently, the blocks were removed and placed upon agar in clean plates, and mycelia were allowed to grow for one week.
# (§3) Radial growth of mycelia colonies was measured for each of the six to eight replicate plates used for a particular fungus, and average colony radius was calculated. Percent control is defined by the following equation: […]
# (§4) Concentrations given for solutions used to treat the agar blocks are expressed in grams of thiocarbonate solution per liter of diluted solution.
# [3] = system: Phytophthora cinnamomi; test: as above; type: cell-based; conditions: listed as CaCS₄ (2.8%CS₂)
# Method: as §1, §2, §3, §4
# [4] = system: Sclerotium rolfsii; test: as above; type: cell-based; conditions: listed as CaCS₄ (2.8%CS₂)
# Method: as §1, §2, §3, §4
# [5] = system: Verticillium dahliae; test: as above; type: cell-based; conditions: listed as CaCS₄ (2.8%CS₂)
# Method: as §1, §2, §3, §4
# [6] = system: sugar beet cyst nematodes (Heterodera spp.); test: Soil treatment of infested sugar beets; type: in vivo; conditions: about 94 kilograms per hectare, dissolved in irrigation water
# Method: Sugar beets, infested with sugar beet cyst nematodes (Heterodera spp.), were treated by application to the soil of about 94 kilograms per hectare of CaCS₄, dissolved in irrigation water.
# [7] = system: Fusarium spp.; test: Petri dish tests in potato dextrose agar and broth; type: cell-based; conditions: when the broth also contained Trichoderma spp., read-out: solution concentration with which control was obtained
# Excerpt: In petri dish tests of CaCS₄ against the fungus Fusarium spp., control with solutions containing less than about 10 grams per liter of the compound, in both potato dextrose agar and potato dextrose broth, was obtained using the solution when the broth also contained another fungus, Trichoderma spp.
# [8] = Degradation time in sandy loam soil at different moisture (CS2 in air space by gas chromatography); type: physicochemical
# Method: A sandy loam soil was placed in 1-liter glass bottles, fitted with stoppers having fluorocarbon liners and silicone rubber septa, to give a soil depth of about 4 cm. Water was added to the soil, in quantities to obtain 50 and 100 percent soil saturation. Thiocarbonate solution or carbon disulfide was then injected near the bottom of the soil layer, the bottles were promptly sealed, and the air space in the bottles was sampled at intervals with a syringe, for gas chromatographic analysis of CS₂. The results are summarized below, wherein degradation time is the number of hours required to achieve the maximum CS₂ concentration in the air space.
# [9] = system: nitrification of ammoniacal fertilizers in soil; test: Inhibition of nitrification of urea in sandy loam soil plots; conditions: 5 weight percent solution at 100 liters per acre after 200 lbs. urea per acre; versus untreated plot
# Excerpt: The ability of the described thiocarbonate compounds to inhibit nitrification of ammoniacal fertilizers in soil can be illustrated by applying to two separate plots of sandy loam soil a urea solution in irrigation water at a rate corresponding to 200 lbs. urea per acre with sufficient water to increase the soil water content to at least 50 percent. This application can be followed, on one of the plots treated with the urea solution and within one hour of application of the urea solution, with application of an aqueous solution containing 5 weight percent calcium tetrathiocarbonate applied at a rate of 100 liters per acre in sufficient irrigation water to increase the soil water content to 100 percent of saturation.
# [10] = Solvency of aqueous thiocarbonate solutions for urea; type: physicochemical; conditions: 41.5 percent by weight aqueous solution; room temperature
# Method: Urea was added to a 41.5 percent, by weight, aqueous solution of calcium tetrathiocarbonate until the solubility limit of urea was reached. At room temperature, the solution dissolved 122 percent by weight urea. The resulting solution was 55 percent urea, 18.6 percent calcium tetrathiocarbonate, and 26.3 percent water, by weight. Thus, the solvency of the aqueous solution of calcium tetrathiocarbonate for urea was at least as great as that of water alone. Similarly, a 46 percent solution of potassium tetrathiocarbonate dissolved 100 percent of its own weight of urea. Similar results were obtained with other tri- and tetrathiocarbonates of alkali metal and alkaline earth metals.
# [11] = system: root-knot nematode larvae; test: Greenhouse nematocide experiment with tomato plants, root gall count; type: in vivo; conditions: Application 50 ppm; mean of four replicates; asterisk = statistically indistinguishable
# Excerpt: (§5) Eighty containers were used, each containing about 500 grams of sterilized sandy loam soil. Each container was given four 5-milliliter injections of extract from nematode-infested pepper roots, one inch below the soil surface, producing an initial population of 2000 root-knot nematode larvae per container.
# (§6) Twenty treatments were replicated four times, each treatment consisting of solution injection into the soil at a two inch depth. The treatments included each of the six compositions from Example 3 at three levels, plus one level of the known nematocide 1,2-dibromo-3-chloropropane (DBCP), and a control with only water injected. After injection, each container was enclosed in a plastic bag and placed in the shade for three days. Upon removing the bags, the soils were aerated by stirring and were allowed to stand undisturbed for eight additional days. Following an additional aeration, a tomato seedling was planted in eac pot.
# (§7) Each container received 25 milligrams nitrogen (as calcium nitrate) immediately after planting, followed by 2 grams of a slow release complete fertilizer. […] By use of a magnifying glass, the number of root galls was counted on each plant. […]
# (§8) The results are shown in the following table, in which the "Application" represents milligrams of treatment per kilogram of soil, calculated as contained carbon disulfide for the Example 3 solutions. […]
# [12] = system: tomato plants; test: Greenhouse nematocide experiment, plant dry weight / phytotoxicity; type: in vivo; conditions: Application 50 ppm; 37 days of growth
# Excerpt: as §5, §6, §7, §8
# [13] = Rate of carbon disulfide loss from solutions on nitrogen bubbling (mass spectrometer); type: physicochemical; conditions: undiluted (pure CS2; Ex. 1 100%)
# Method: The rate at which carbon disulfide is lost from diluted ammonium thiocarbonate compositions was determined by bubbling nitrogen through the solutions and measuring the carbon disulfide content of the gas which leaves the solution using a mass spectrometer.
# In the determination, the solution, corresponding to that of Example 1 (containing 14.1 percent by weight carbon disulfide), was compared to pure carbon disulfide, and to serial dilutions of the Example 1 solution with water, which were 10, 1 and 0.1 volume percent solutions of the original composition. The results are tabulated below, wherein k is the calculated first order rate constant for loss of carbon disulfide, and t is the solution half-life.
# [14] = pH 5.2, 125 milligrams of thiocarbonate ion per liter
# [15] = pH 8.0, CaCS4 values above pH 7 called unreliable
smiles,measurement,setting,value
"S=C(S)SS [CaCS₄, calcium tetrathiocarbonate]",Half-life (minutes) for production of carbon disulfide,[1]; [14],1 min
same,Half-life (minutes) for production of carbon disulfide,[1]; pH 6.0,1.8 min
same,Half-life (minutes) for production of carbon disulfide,[1]; pH 7.0,2.7 min
same,Half-life (minutes) for production of carbon disulfide,[1]; [15],8.0 min
same,Percent Control Fusarium oxysporum,[2]; 1 g/l,3%
same,Percent Control Fusarium oxysporum,[2]; 10 g/l,18%
same,Percent Control Fusarium oxysporum,[2]; 100 g/l thiocarbonate solution per liter of diluted solution,100%
same,Percent Control Phytophthora cinnamomi,[3]; 1 g/l,56%
same,Percent Control Phytophthora cinnamomi,[3]; 10 g/l,56%
same,Percent Control Sclerotium rolfsii,[4]; 1 g/l,46%
same,Percent Control Sclerotium rolfsii,[4]; 10 g/l,62%
same,Percent Control Verticillium dahliae,[5]; 1 g/l,13%
same,Percent Control Verticillium dahliae,[5]; 10 g/l,22%
same,counts and viability of nematode larvae in the soil following treatment,[6],"remained high, but the larvae were not viable"
same,minimal effective concentration,[7],< 10000 µg/mL
same,Degradation Time,"[8]; Soil Moisture 0 % of Saturation, hours to maximum CS2 concentration in the air space",4 h
same,nitrification of urea in the treated soil,[9],nitrified more slowly
same,urea dissolved by the solution,[10],122 percent by weight
"ClCC(Br)CBr (stereo not shown) [DBCP, 1,2-dibromo-3-chloropropane]",Gall Count,[11],0*
same,"Dry Weight, Grams Roots",[12],0.273 Grams
same,"Dry Weight, Grams Total",[12],1.238 Grams
"S=C=S [CS₂, carbon disulfide, reference compound]","k, first order rate constant for loss of carbon disulfide",[13],2.0 h⁻¹
same,Half-life (minutes) for production of carbon disulfide,[1]; [14],1 min
same,Half-life (minutes) for production of carbon disulfide,[1]; pH 6.0,1 min
same,Half-life (minutes) for production of carbon disulfide,[1]; pH 7.0,1 min
same,Half-life (minutes) for production of carbon disulfide,[1]; [15],1 min
same,Degradation Time,[8]; Soil Moisture 50 % of Saturation,3.5 h
same,Degradation Time,[8]; Soil Moisture 100 % of Saturation,3.5 h

# Source: patent publication EP0366226A1, “Stabilized thiocarbonate solutions and the use thereof for controlling soil pests” (UNION OIL COMPANY OF CALIFORNIA, priority 1988, dated 1990)
